Among the data in patent US10870647B2, “Imidazopyridine derivative, method for preparing same, and pharmaceutical composition containing same as active ingredient for preventing or treating cancer” (DAEGU-GYEONGBUK MEDICAL INNOVATION FOUNDATION, priority 2016, dated 2020) are remaining binding values, retold here.

What all share (experiment): Kinase selectivity, scanMAX Kinase assay panel (DiscoverX), % control at 1 uM
Common to all, as to type: binding

Assay [1] concerns the target T1, scanMAX Kinase assay panel (Homo sapiens, UniProt Q6P3R8).
T1 construct: purchased DiscoverX
T1 sequence (Q6P3R8 1-708): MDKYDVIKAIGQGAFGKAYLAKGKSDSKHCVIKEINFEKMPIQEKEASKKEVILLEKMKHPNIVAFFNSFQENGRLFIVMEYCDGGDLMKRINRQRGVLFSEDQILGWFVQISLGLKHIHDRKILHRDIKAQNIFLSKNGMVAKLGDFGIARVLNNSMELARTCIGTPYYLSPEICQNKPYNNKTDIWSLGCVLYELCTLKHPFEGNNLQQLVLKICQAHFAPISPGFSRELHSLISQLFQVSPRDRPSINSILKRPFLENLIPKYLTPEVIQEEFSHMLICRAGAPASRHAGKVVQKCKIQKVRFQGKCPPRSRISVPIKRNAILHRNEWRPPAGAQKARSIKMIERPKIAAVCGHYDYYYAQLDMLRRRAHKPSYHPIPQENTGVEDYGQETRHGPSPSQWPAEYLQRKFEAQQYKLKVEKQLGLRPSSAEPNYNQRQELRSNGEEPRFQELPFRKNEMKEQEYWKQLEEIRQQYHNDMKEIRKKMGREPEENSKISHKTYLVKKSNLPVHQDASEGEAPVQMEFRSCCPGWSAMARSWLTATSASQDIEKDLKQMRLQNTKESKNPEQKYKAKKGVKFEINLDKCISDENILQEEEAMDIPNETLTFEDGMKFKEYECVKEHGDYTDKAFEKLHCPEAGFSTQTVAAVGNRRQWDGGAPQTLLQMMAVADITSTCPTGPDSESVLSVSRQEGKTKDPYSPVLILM
The note with it: NEK5; 1 uM; read-out: Percent Control (%). The method, boiled down: (§1)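 1 uM cpd (DMSO) per kinase; % ctrl = [cpd − pos ctrl]/[neg ctrl − pos ctrl] × 100; hit if <35.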

Assay [2] addresses T2, scanMAX Kinase assay panel (Homo sapiens, UniProt Q8N752).
T2 construct: purchased DiscoverX
T2 sequence (Q8N752 1-337): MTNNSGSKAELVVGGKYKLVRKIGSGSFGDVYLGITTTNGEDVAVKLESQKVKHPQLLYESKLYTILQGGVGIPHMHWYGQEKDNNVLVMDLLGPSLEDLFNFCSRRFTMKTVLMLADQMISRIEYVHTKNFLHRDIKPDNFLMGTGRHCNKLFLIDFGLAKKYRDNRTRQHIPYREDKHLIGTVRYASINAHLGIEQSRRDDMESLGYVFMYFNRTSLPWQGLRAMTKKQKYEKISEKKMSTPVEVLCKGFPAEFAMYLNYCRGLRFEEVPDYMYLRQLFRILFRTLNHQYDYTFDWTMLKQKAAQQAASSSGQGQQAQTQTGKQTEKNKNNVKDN
The note with it: CSNK1A1L; 1 uM; read-out: Percent Control (%). Put shortly: as §1

In assay [3] the target is T3, scanMAX Kinase assay panel (Homo sapiens, UniProt Q13546).
T3 construct: purchased DiscoverX
T3 sequence (Q13546 1-671): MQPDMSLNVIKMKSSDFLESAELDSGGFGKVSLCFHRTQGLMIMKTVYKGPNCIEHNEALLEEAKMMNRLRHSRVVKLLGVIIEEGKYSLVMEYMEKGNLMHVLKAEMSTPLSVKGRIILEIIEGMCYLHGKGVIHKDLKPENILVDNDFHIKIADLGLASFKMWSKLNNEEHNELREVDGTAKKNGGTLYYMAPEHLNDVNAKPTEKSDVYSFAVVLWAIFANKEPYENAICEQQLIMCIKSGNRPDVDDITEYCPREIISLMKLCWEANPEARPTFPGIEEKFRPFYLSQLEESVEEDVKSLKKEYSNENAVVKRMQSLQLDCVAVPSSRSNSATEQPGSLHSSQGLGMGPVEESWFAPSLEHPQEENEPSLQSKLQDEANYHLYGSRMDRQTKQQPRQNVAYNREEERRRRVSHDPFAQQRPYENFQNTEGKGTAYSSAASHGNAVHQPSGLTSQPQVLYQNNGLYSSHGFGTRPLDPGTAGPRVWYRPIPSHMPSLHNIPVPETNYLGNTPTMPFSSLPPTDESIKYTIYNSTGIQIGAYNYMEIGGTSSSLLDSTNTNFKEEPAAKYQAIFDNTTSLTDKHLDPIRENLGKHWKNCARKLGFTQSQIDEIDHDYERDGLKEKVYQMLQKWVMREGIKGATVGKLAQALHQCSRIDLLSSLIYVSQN
The note with it: RIPK1; 1 uM; read-out: Percent Control (%). The method, boiled down: as §1

The target of assay [4] is T4, scanMAX Kinase assay panel (Homo sapiens, UniProt Q14012).
T4 construct: purchased DiscoverX
The note with it: CAMK1; 1 uM; read-out: Percent Control (%). Put shortly:
as §1

The target of assay [5] is T5, scanMAX Kinase assay panel (Homo sapiens, UniProt Q04912).
T5 construct: purchased DiscoverX
The note with it: MST1R; 1 uM; read-out: Percent Control (%). The method, boiled down: as §1

T5 sequence (Q04912 25-1400): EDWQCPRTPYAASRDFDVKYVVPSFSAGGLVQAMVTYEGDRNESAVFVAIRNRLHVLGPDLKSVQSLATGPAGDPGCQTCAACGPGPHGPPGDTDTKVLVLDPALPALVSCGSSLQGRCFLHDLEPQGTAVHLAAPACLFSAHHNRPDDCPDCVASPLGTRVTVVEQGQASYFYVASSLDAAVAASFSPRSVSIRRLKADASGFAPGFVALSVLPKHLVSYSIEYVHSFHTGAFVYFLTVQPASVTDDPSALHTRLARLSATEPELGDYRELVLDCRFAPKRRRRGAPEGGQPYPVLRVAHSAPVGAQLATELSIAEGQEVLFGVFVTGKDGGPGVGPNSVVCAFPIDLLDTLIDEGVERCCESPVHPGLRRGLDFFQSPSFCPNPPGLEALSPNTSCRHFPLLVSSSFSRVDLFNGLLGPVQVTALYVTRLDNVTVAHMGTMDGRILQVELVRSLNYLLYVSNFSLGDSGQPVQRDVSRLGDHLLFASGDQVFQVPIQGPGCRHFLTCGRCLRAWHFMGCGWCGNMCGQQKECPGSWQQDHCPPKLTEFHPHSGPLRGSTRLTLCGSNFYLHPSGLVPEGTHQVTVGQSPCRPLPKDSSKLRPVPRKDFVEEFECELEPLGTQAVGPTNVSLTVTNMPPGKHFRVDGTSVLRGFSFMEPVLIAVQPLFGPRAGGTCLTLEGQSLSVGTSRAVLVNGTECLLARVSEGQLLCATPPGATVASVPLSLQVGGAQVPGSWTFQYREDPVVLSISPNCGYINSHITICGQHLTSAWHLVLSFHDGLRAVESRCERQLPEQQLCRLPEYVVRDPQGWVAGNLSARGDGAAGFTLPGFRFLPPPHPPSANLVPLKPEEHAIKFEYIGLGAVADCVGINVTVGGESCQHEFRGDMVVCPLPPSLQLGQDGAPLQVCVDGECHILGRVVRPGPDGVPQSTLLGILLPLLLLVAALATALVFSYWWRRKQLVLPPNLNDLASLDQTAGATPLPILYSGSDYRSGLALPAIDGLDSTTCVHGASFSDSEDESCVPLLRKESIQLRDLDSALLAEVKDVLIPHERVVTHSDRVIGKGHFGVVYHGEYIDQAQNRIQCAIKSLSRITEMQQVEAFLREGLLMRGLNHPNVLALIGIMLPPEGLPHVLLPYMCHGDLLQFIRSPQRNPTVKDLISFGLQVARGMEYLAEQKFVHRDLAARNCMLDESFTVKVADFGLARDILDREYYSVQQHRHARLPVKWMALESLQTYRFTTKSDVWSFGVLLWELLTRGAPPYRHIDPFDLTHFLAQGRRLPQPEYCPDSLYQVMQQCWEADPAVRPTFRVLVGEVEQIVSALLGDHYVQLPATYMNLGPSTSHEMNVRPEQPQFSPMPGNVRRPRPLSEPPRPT
T4 sequence (Q14012 whole entry): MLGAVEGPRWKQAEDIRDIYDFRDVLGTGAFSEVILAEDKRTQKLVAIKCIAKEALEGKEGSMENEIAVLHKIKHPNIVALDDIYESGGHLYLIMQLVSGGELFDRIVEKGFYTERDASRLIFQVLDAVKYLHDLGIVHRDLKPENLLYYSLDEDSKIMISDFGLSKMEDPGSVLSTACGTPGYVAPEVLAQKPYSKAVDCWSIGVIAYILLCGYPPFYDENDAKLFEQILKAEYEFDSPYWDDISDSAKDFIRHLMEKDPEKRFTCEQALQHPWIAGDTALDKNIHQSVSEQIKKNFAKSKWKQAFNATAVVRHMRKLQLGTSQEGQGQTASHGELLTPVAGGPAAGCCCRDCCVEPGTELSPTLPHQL

Turning to `Cc1ccc(C(=O)Nc2ccc(CN3CCN(C)CC3)c(C(F)(F)F)c2)cc1C#Cc1cnc2c(Nc3cnn(C)c3)cccn12` [Example 1, 4-methyl-3-((8-((1-methyl-1H-pyrazol-4-yl)amino)imidazo[1,2-a]pyridin-3-yl)ethynyl)-N-(4-((4-methylpiperazin-1-yl)methyl)-3-(trifluoromethyl)phenyl)benzamide], the remaining binding at 1 µM was determined as 2% in assay [1]; 93% in assay [2]; 0% in assay [3]; 35% in assay [4]; 32% in assay [5].

`Cc1cn(-c2cc(NC(=O)c3ccc(C)c(C#Cc4cnc5c(Nc6cnn(C)c6)cccn45)c3)cc(C(F)(F)F)c2)cn1` [Example 12, 4-methyl-N-(3-(4-methyl-1H-imidazol-1-yl)-5-(trifluoromethyl)phenyl)-3-((8-((1-methyl-1H-pyrazol-4-yl)amino)imidazo[1,2-a]pyridin-3-yl)ethynyl)benzamide]: the remaining binding at 1 µM in assay [1] was determined as 86%; in assay [2] it was 70%; in assay [3] it was 5%; in assay [4], 73%; in assay [5], 87%.

For `Cc1ccc(NC(=O)C2(C(=O)Nc3ccc(F)cc3)CC2)cc1C#Cc1cnc2c(Nc3cnn(C(C)C)c3)cccn12` [Example 78], the remaining binding at 1 µM in assay [1] came to 100%; in assay [2], 100%; in assay [3], 19%; in assay [4], 100%; in assay [5], 97%.
